Experimental data as given in patent US20090246169A1, “INDOLOPYRIDINES AS EG5 KINESIN MODULATORS” (priority 2006, published 2009).

Experiments:
[1] = target: T1, Eg5 kinesin motor domains (Homo sapiens, UniProt P52732); assay: Eg5 ATPase activity assay (Malachite green); type: biochemical; conditions: 300 μM ATP, 250 nM microtubules, 30 min room temperature, read-out: Inhibition of Eg5 activity, −log IC50 [mol/l] (converted)
T1 construct: The ATPase activity of Eg5 kinesin motor domains (Cytoskeleton, cat. No. EG01); purchased Cytoskeleton EG01
T1 sequence (P52732 18-359 limits assumed): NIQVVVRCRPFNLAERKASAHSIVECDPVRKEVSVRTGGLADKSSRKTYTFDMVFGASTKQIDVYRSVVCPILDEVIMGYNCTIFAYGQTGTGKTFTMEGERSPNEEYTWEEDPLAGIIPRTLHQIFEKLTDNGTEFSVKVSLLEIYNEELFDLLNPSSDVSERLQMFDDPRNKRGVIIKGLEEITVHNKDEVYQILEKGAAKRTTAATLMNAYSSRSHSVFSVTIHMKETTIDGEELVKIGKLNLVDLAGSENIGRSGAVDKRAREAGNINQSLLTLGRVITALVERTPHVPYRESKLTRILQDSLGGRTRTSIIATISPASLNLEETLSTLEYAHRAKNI
Description: The ATPase activity of Eg5 kinesin motor domains (Cytoskeleton, cat. No. EG01) can be used to monitor the effects of modulating agents. The test compounds are dissolved as 10 mM solutions in dimethylsulfoxide (DMSO). 2 μl of appropriate DMSO dilutions of the test compounds are added to each well of a 96 well flat bottom plate. Each compound dilution is tested as triplicates. The reagents are added and the final reaction of the standard assay contains 15 mM Pipes, pH 6.8, 5.0 mM MgCl2, 0.5 mM KCl, 1 mM EGTA, 0.1 mg/ml BSA, 1 μM Paclitaxel, 250 nM preformed microtubules (Cytoskeleton, cat. No. MT001), 300 μM ATP, and Eg5 protein (50 ng) in a reaction volume of 100 μl. The controls include buffer wells with ATP and 2% DMSO. Reactions are started by the addition of ATP, incubated at room temperature for 30 min., and terminated by removing 20 μl of the reaction volume and adding it to 80 μl of 1 M perchloric acid, followed by the addition of 80 μl Malachite green reagent. […] The reactions are incubated for a further 20 min. and then read at 615 nm.
The corresponding IC50 values of the compounds for Eg5 inhibition are determined from the concentration-effect curves.
Representative inhibitory values [measured as −log IC50 (mol/l)] determined in the aforementioned assay follow from the following table A, in which the numbers of the compounds correspond to the numbers of the examples.

[2] = system: RKO p27 colon adenocarcinoma cells, uninduced (proliferating); assay: Alamar Blue cell viability assay, RKO p27 uninduced (proliferating); type: cell-based; conditions: Homo sapiens, RKOp27; anti-proliferative/cytotoxic activity, 72 hours, without Ponasterone A; read-out: −log EC50 [mol/l] RKO p27 uninduced (proliferating) (converted)
Description: The anti-proliferative/cytotoxic activity of the compounds described herein can be tested on subclones of RKO human colon adenocarcinoma cells (Schmidt et al., Oncogene 19, 2423-2429; 2000) using the Alamar Blue cell viability assay (described in O'Brien et al. Eur J Biochem 267, 5421-5426, 2000). The compounds are dissolved as 10 mM solutions in DMSO and subsequently diluted in semi-logarithmic steps. DMSO dilutions are further diluted 1:100 into Dulbecco's modified Eagle's medium (DMEM) containing 10% fetal calf serum to a final concentration twice as much as the final concentration in the test. […] To determine the viability of the cells, 10 μl of an Alamar Blue solution (Biosource) are added and the fluorescence is measured at an extinction of 544 nm and an emission of 590 nm. […] Viabilities are expressed as % values. […]
(§1) To determine the cell cycle specific mode of action, subclones of RKO colon adenocarcinoma cells (RKOp21 or RKOp27 as described by Schmidt et al. in Oncogene 19, 2423-2429; 2000) are seeded into 96 well flat bottom plates at a density of 16000 cells per well in a volume of 50 μl per well in DMEM growth medium with 10% FCS containing 10 μM Ponasterone A. 24 hours after seeding the 50 μl each of the compound dilutions in DMEM medium are added into each well of the 96-well plate. […] Viabilities are expressed as % values. […]

[3] = system: RKO p27 colon adenocarcinoma cells, induced (arrested); assay: Alamar Blue cell viability assay, RKO p27 induced (arrested) by Ponasterone A; type: cell-based; conditions: Homo sapiens, RKOp27; anti-proliferative/cytotoxic activity, 72 hours, 10 μM Ponasterone A; read-out: −log EC50 [mol/l] RKO p27 induced (arrested) (converted)
Description: as §1, with “plate. Each compound dilution is tested as triplicates. Wells containing untreated control cells are filled with 50 μl DMEM medium containing 1% DMSO. The cells are then incubated with the substances for 72 hours at 37° C. in a humidified atmosphere containing 5% carbon dioxide. To determine the viability of the cells, 10 μl of an Alamar Blue solution (Biosource) are added and the fluorescence is measured at an extinction of 544 nm and an emission of 590 nm.” for “plate.”
Representative values for anti-proliferation/cytotoxicity [measured as −log EC50 (mol/l)] determined in the aforementioned assays follow from the following tables B1 and B2, in which the numbers of the compounds correspond to the numbers of the examples.

[4] = system: RKO p21 colon adenocarcinoma cells, uninduced (proliferating); assay: Alamar Blue cell viability assay, RKO p21 uninduced (proliferating); type: cell-based; conditions: Homo sapiens; anti-proliferative/cytotoxic activity, 72 hours, without Ponasterone A; read-out: −log EC50 [mol/l] RKO p21 uninduced (proliferating) (converted)
How it was run: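 Proliferating RKO subclones, no Ponasterone A inducer, seeded in DMEM/10% FCS and dosed after 24 h with semi-log dilutions in triplicate, 72 h at 37 °C, 5% CO2. Viability by Alamar Blue fluorescence (544/590 nm) vs untreated cells; EC50 from dose-response curves.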

Row | IC50 [1] | SMILES | EC50 [2] | EC50 [3] | EC50 [4]
1 | 31.6 nM | COc1ccc2[nH]c3c(c2c1)C[C@@]1(C)C(=O)N(CCN(C)C)C(=O)N1[C@@H]3c1ccccc1 (racemic) [Example 1, (3aSR,10RS)-2-(2-Dimethylamino-ethyl)-6-methoxy-3a-methyl-10-phenyl-3a,4,9,10-tetrahydro-2,9,10a-triaza-cyclopenta[b]fluorene-1,3-dione] | 63.1 nM | ≥ 10000 nM | –
2 | – | C#CC(C)NCCN1C(=O)N2[C@H](c3ccccc3)c3[nH]c4ccc(OC)cc4c3C[C@@]2(C)C1=O (stereo partly drawn) [Example 48, (3aSR, 10RS)-6-Methoxy-3a-methyl-2-[2-(R)-1-methyl-prop-2-ynylamino)-ethyl]-10-phenyl-3a,4,9,10-tetrahydro-2,9,10a-triaza-cyclopenta [b]fluorene-1,3-dione and (3aSR, 10RS)-6-Methoxy-3a-methyl-2-[2-(S)-1-methyl-prop-2-ynylamino)-ethyl]-10-phenyl-3a,4,9,10-tetra-hydro-2,9,10a-triaza-cyclo-penta[b]fluorene-1,3-dione] | – | – | ≤ 1000 nM
3 | – | COc1ccc2[nH]c3c(c2c1)C[C@@]1(C)C(=O)N(CCCNCC(F)F)C(=O)N1[C@@H]3c1ccccc1 [Example 50, (3aS, 10R)-2-[3-(2,2-Difluoro-ethylamino)-propyl]-6-methoxy-3a-methyl-10-phenyl-3a,4,9,10-tetrahydro-2,9,10a-triaza-cyclopenta[b] fluorene-1,3-dione] | – | – | ≤ 1000 nM
